Laboratory results taken from ChEMBL document CHEMBL1201862, “PubChem BioAssay data set” (2004).
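Cells were grown in 96-well plates and exposed to each compound for 48 hours at five concentrations; endpoints were interpolated linearly between bracketing concentrations, or set to the highest concentration if not reached. GI50: concentration for 50% inhibition of growth.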 Activity calls are given as the source filed them. Rule as the data show it: active = GI50 up to about 1.1 µM and inactive = higher.

Columns and labels:
Experiment in all cases: NCI tumour cell line growth inhibition, 48 h
OVCAR-8 = tested on: OVCAR-8
HCT-15 = tested on: HCT-15
DMS-273 = tested on: DMS-273
NCI-H23 = tested on: NCI-H23
RPMI-8226 = tested on: RPMI-8226
SK-MEL-2 = tested on: SK-MEL-2
786-0 = tested on: 786-0
A498 = tested on: A498
K562 = tested on: K562
HT-29 = tested on: HT-29
M14 = tested on: M14
UO-31 = tested on: UO-31
OVCAR-3 = tested on: OVCAR-3
SK-OV-3 = tested on: SK-OV-3
IGROV-1 = tested on: IGROV-1
LOX IMVI = tested on: LOX IMVI
HCT-116 = tested on: HCT-116
T47D = tested on: T47D
MDA-MB-435 = tested on: MDA-MB-435

SMILES | GI50 (OVCAR-8) | GI50 (HCT-15) [µM] | GI50 (DMS-273) | GI50 (NCI-H23) | GI50 (RPMI-8226) | GI50 (SK-MEL-2) | GI50 (786-0) | GI50 (A498) | GI50 (K562) | GI50 (HT-29) | GI50 (M14) | GI50 (UO-31) | GI50 (OVCAR-3) | GI50 (SK-OV-3) | GI50 (IGROV-1) | GI50 (LOX IMVI) | GI50 (HCT-116) | GI50 (T47D) | GI50 (MDA-MB-435)
O=C(CN1CCOCC1)Nc1nc(-c2ccc(Cl)cc2)cs1 | 23.8 µM (inactive) | 29.4 | 17.5 µM (inactive) | 15.1 µM (inactive) | 13.6 µM (inactive) | 26.5 µM (inactive) | 60.3 µM (inactive) | 23.1 µM (inactive) | 19.4 µM (inactive) | 36.1 µM (inactive) | 32.2 µM (inactive) | 20.3 µM (inactive) | 22.3 µM (inactive) | 65.3 µM (inactive) | 45.2 µM (inactive) | 22.2 µM (inactive) | – | – | –
CSCCOC(=O)C(=[N+]=[N-])c1ccc([N+](=O)[O-])cc1 | > 100 µM (inactive) | > 100 | > 100 µM (inactive) | > 100 µM (inactive) | > 100 µM (inactive) | > 100 µM (inactive) | > 100 µM (inactive) | – | > 100 µM (inactive) | > 100 µM (inactive) | > 100 µM (inactive) | > 100 µM (inactive) | > 100 µM (inactive) | > 100 µM (inactive) | > 100 µM (inactive) | > 100 µM (inactive) | > 100 µM (inactive) | – | –
O=C(O)C12C3C4C1C1C2C3C1(Br)C41OCCO1 (stereo not drawn) | > 100 µM (inactive) | – | > 100 µM (inactive) | > 100 µM (inactive) | > 100 µM (inactive) | > 100 µM (inactive) | > 100 µM (inactive) | > 100 µM (inactive) | > 100 µM (inactive) | > 100 µM (inactive) | – | > 100 µM (inactive) | > 100 µM (inactive) | > 100 µM (inactive) | > 100 µM (inactive) | > 100 µM (inactive) | > 100 µM (inactive) | – | –
N#C/C(=C\c1c(Cl)cccc1Cl)c1ccccc1 | 16.4 µM (inactive) | 4.16 | 3.35 µM (inactive) | 14.9 µM (inactive) | 5.48 µM (inactive) | 5.78 µM (inactive) | 4.92 µM (inactive) | 3.13 µM (inactive) | 3.15 µM (inactive) | 4.19 µM (inactive) | 6.4 µM (inactive) | 17.7 µM (inactive) | 3.8 µM (inactive) | 6.11 µM (inactive) | 9.29 µM (inactive) | 18.7 µM (inactive) | 4.36 µM (inactive) | – | –
CCCCC(N)CSSCC(N)CCCC (stereo not drawn) | 37.8 µM (inactive) | 26.2 | 23.4 µM (inactive) | 24.8 µM (inactive) | 25.1 µM (inactive) | 17.2 µM (inactive) | 17.9 µM (inactive) | 25.8 µM (inactive) | 19.4 µM (inactive) | 23.7 µM (inactive) | 17.9 µM (inactive) | 21.4 µM (inactive) | 20.8 µM (inactive) | 57.1 µM (inactive) | 50.8 µM (inactive) | 17.6 µM (inactive) | 17.8 µM (inactive) | – | –
CCCc1nc(N)nc(C(=O)Nc2cccc(C(F)(F)F)c2)c1CC | > 100 µM (inactive) | > 100 | > 100 µM (inactive) | > 100 µM (inactive) | 76.6 µM (inactive) | > 100 µM (inactive) | > 100 µM (inactive) | > 100 µM (inactive) | > 100 µM (inactive) | > 100 µM (inactive) | > 100 µM (inactive) | > 100 µM (inactive) | > 100 µM (inactive) | – | > 100 µM (inactive) | > 100 µM (inactive) | > 100 µM (inactive) | – | –
Cc1nc2c(n1-c1ccc(Br)cc1)C(=O)c1ccccc1C2=O | 6.52 µM (inactive) | 1.04 | 4.49 µM (inactive) | 34 µM (inactive) | 1.43 µM (inactive) | 66.4 µM (inactive) | 5.16 µM (inactive) | > 49.8 µM (inactive) | 1.33 µM (inactive) | 6.68 µM (inactive) | 17.7 µM (inactive) | 7.76 µM (inactive) | 12 µM (inactive) | 42.2 µM (inactive) | 21.2 µM (inactive) | 2.62 µM (inactive) | 1.63 µM (inactive) | 19.3 µM (inactive) | 6.73 µM (inactive)
CC(CCC(=O)O)c1ccc(Br)cc1 (stereo not drawn) | > 100 µM (inactive) | > 100 | > 100 µM (inactive) | > 100 µM (inactive) | > 100 µM (inactive) | > 100 µM (inactive) | > 100 µM (inactive) | – | > 100 µM (inactive) | > 100 µM (inactive) | > 100 µM (inactive) | > 100 µM (inactive) | > 100 µM (inactive) | > 100 µM (inactive) | > 100 µM (inactive) | > 100 µM (inactive) | > 100 µM (inactive) | – | –
NCCCCNc1ccc2c(=O)[nH][nH]c(=O)c2c1 | > 100 µM (inactive) | – | > 100 µM (inactive) | > 100 µM (inactive) | – | > 100 µM (inactive) | > 100 µM (inactive) | > 100 µM (inactive) | > 100 µM (inactive) | > 100 µM (inactive) | > 100 µM (inactive) | > 100 µM (inactive) | > 100 µM (inactive) | > 100 µM (inactive) | > 100 µM (inactive) | > 100 µM (inactive) | > 100 µM (inactive) | – | –
CCN(CC)c1oc(N(CC)CC)c(C(=O)Nc2ccccn2)c(=O)c1C(C)=O | > 100 µM (inactive) | > 100 | > 100 µM (inactive) | > 100 µM (inactive) | > 100 µM (inactive) | > 100 µM (inactive) | > 100 µM (inactive) | > 100 µM (inactive) | > 100 µM (inactive) | > 100 µM (inactive) | > 100 µM (inactive) | > 100 µM (inactive) | > 100 µM (inactive) | > 100 µM (inactive) | > 100 µM (inactive) | – | > 100 µM (inactive) | – | –
NC(=S)N1N=C2c3ccccc3CC[C@H]2[C@@H]1c1cccs1 | 32.7 µM (inactive) | 21.3 | 10.8 µM (inactive) | 24.6 µM (inactive) | 37.9 µM (inactive) | 22.1 µM (inactive) | 43.9 µM (inactive) | 60.3 µM (inactive) | 7.69 µM (inactive) | 24.1 µM (inactive) | 22 µM (inactive) | 27.5 µM (inactive) | 36.2 µM (inactive) | 37.7 µM (inactive) | 37.2 µM (inactive) | 66.5 µM (inactive) | 28.8 µM (inactive) | – | –
COc1ccc2nc(NC(=O)C(=O)C(C#N)c3ccc([N+](=O)[O-])cc3)sc2c1 (stereo not drawn) | > 100 µM (inactive) | > 100 | > 100 µM (inactive) | > 100 µM (inactive) | 31.2 µM (inactive) | > 100 µM (inactive) | > 100 µM (inactive) | – | 72.1 µM (inactive) | > 100 µM (inactive) | > 100 µM (inactive) | 11.2 µM (inactive) | > 100 µM (inactive) | > 100 µM (inactive) | > 100 µM (inactive) | > 100 µM (inactive) | > 100 µM (inactive) | – | –
CCCCCCCCCCCOc1ccc(C(=O)C(=O)c2ccc(OCCCCCCCCCCC)c(OCCCCCCCCCCC)c2)cc1OCCCCCCCCCCC | > 100 µM (inactive) | > 100 | > 100 µM (inactive) | > 100 µM (inactive) | > 100 µM (inactive) | > 100 µM (inactive) | > 100 µM (inactive) | > 100 µM (inactive) | > 100 µM (inactive) | > 100 µM (inactive) | > 100 µM (inactive) | > 100 µM (inactive) | > 100 µM (inactive) | > 100 µM (inactive) | > 100 µM (inactive) | > 100 µM (inactive) | > 100 µM (inactive) | – | –
CCc1nc(N)nc(C(=O)NCCNC(=O)c2nc(N)nc(CC)c2C)c1C | > 100 µM (inactive) | > 100 | > 100 µM (inactive) | > 100 µM (inactive) | > 100 µM (inactive) | > 100 µM (inactive) | > 100 µM (inactive) | > 100 µM (inactive) | > 100 µM (inactive) | > 100 µM (inactive) | > 100 µM (inactive) | > 100 µM (inactive) | > 100 µM (inactive) | – | > 100 µM (inactive) | > 100 µM (inactive) | > 100 µM (inactive) | – | –
COc1cc(OC)c(/C=C2\N=C(C)N(Nc3nnc(NN4C(=O)/C(=C/c5c(OC)cc(OC)cc5OC)N=C4C)c4ccccc34)C2=O)c(OC)c1 | > 100 µM (inactive) | > 100 | > 100 µM (inactive) | > 100 µM (inactive) | > 100 µM (inactive) | – | > 100 µM (inactive) | > 100 µM (inactive) | > 100 µM (inactive) | > 100 µM (inactive) | > 100 µM (inactive) | – | – | – | > 100 µM (inactive) | > 100 µM (inactive) | > 100 µM (inactive) | – | –
Cc1c(C(=O)/C=C/c2ccc([N+](=O)[O-])cc2)[n+]([O-])c2ccccc2[n+]1[O-] | 55.3 µM (inactive) | – | 57.3 µM (inactive) | 28.2 µM (inactive) | 33.6 µM (inactive) | – | 52.1 µM (inactive) | > 100 µM (inactive) | 27 µM (inactive) | 96.6 µM (inactive) | > 100 µM (inactive) | > 100 µM (inactive) | 95.7 µM (inactive) | > 100 µM (inactive) | 55.7 µM (inactive) | 42.3 µM (inactive) | 48.4 µM (inactive) | – | –
Cc1c2cc[n+](C)cc2c(C)c2c1[nH]c1ccc(Oc3ccccc3)cc12 | 0.605 µM (active) | 4.69 | 0.387 µM (active) | 0.53 µM (active) | 2.64 µM (inactive) | 0.832 µM (active) | 0.518 µM (active) | – | 0.665 µM (active) | 0.843 µM (active) | 4.37 µM (inactive) | 5.08 µM (inactive) | 1.14 µM (inactive) | 1.14 µM (inactive) | 2.37 µM (inactive) | 1.61 µM (inactive) | 1.29 µM (inactive) | – | –
